Reference: paper PMC4193996 (Journal of Experimental & Clinical Cancer Research : CR, 2014)

Assays:
[1] = tested on: h-Tel quadruplex DNA, 5'-biotin-d[AG3(T2AG3)3] (DNA, G4) AGGGTTAGGGTTAGGGTTAGGG; assay: SPR
BJ-EHLT fibroblasts = assay: γ-H2AX/TRF1 colocalization (TIFs, telomere uncapping); type: cell-based, human
Protocol: Cells were fixed in 2% formaldehyde and permeabilized in 0.25% Triton X100 in PBS for 5 min at room temperature. For immunolabeling, cells were incubated with primary antibody, then washed in PBS and incubated with the secondary antibodies. The following primary antibodies were used: pAb and mAb anti-TRF1(Abcam Ltd.; Cambridge UK); mAb (Upstate, Lake Placid, NY) and pAb anti-γH2AX (Abcam); mAb anti-PCNA (Sigma Chemicals, Milano, Italy). The following secondary antibody were used: TRITC conjugated Goat anti Rabbit, FITC conjugated Goat anti Mouse (Jackson ImmunoResearch Europe Ltd., Suffolk, UK). Fluorescence signals were recorded by using a Leica DMIRE2 microscope equipped with a Leica DFC 350FX camera and elaborated by a Leica FW4000 deconvolution software (Leica, Solms, Germany). This system permits to focus single planes inside the cell generating 3D highresolution images. For quantitative analysis of γH2AX positivity, 200 cells on triplicate slices were scored. For TIFs analysis, in each nucleus a single plane was analyzed and at least 50 nuclei per sample were scored.
Unfortunately, we were not able to test compounds 4, 5 and the 0,5 μM dose of 3 as they were fluorescent in both red and green channels. […] To ascertain whether γ-H2AX was phosphorylated in response to dysfunctional telomeres, double immunofluorescence experiments were processed by confocal microscopy. We observed that some of the γ-H2AX foci induced by G4-ligands colocalized with TRF1, a good marker for interphase telomeres, forming the so-called telomere dysfunction-induced foci (TIFs) (Figure 2B).
Figure 2 DNA damage activation at telomeres. BJ-EHLT fibroblasts were treated for 24 hrs with compound 1 and the indicated ligands at the doses 0.1 (light-grey bars) and 0.5 μM (dark-grey bars). Cells were processed for immunofluorescence (IF) using antibodies against γ-H2AX and TRF1 to mark DNA damage and telomeres respectively. Percentages of γ-H2AX- (A) and TIF-positive (B) treated and untreated cells are reported in the histograms. (C) Mean number of TIFs in the indicated samples. Cells with four or more γ-H2AX/TRF1 foci were scored as TIF positive. Error bars indicate the standard deviation. (D) Representative images of IF of untreated and 1, 3, 6 and 8-treated BJ-EHLT cells. Enlarged views of TIFs are reported on the right of the merged images. The images were acquired with a Leica Deconvolution microscope (magnification 100x). (E) Cells treated as in (A) were processed for IF of γ-H2AX and PCNA to mark replicating cells. Percentage of γ-H2AX+/PCNA- or γ-H2AX+/PCNA + nuclei in the indicated samples are reported in the histograms.

hERG = hERG (Homo sapiens, UniProt Q12809); assay: hERG tail current inhibition in a patch clamp assay; type: cell-based; details: read-out: hERG % inh @10 μM
Protocol: hEGR study and the M2 and the β2 receptor inhibition assay were performed as previously reported.
The new G-quadruplex ligands were designed in an attempt to obtain molecules with improved toxicological and on-target profiles, but maintaining the same favorable chemical and pharmacological features of the lead compound 1. With the aim of selecting the best variants, a step by step comparative analysis of their off- and on-target properties was performed. Initially the new molecules were tested for their ability to interact with and inhibit the human recombinant β2 adrenergic and M2 muscarinic receptors, and to reduce the hERG tail current in a patch clamp assay. […] Therefore, we might expect that the new ligands would impair cardiac functionality to a lesser extent than the lead molecule does.

[2] = tested on: alternating hairpin duplex sequence 5'-biotin-CGA3T3C(CT)2GA3T3CG; assay: SPR binding to duplex DNA
Protocol: Oligonucleotides 5’-biotin-d [AG3 (T2AG3)3] quadruplex and 5’-biotin-CGA3T3C(CT)2GA3T3CG were purchased from Midland Certified Reagent Company (Midland, TX). Purification of DNA, preparation of solutions, collection of data, and analysis of results were conducted according to methods adopted in an earlier study.
This technique takes advantage of the refractive index change elicits by the binding of the drug with the h-Tel quadruplex DNA sequence 5’-d[AGGG(TTAGGG)3]-3’ or an alternating hairpin duplex sequence immobilized on a sensor chip surface.

[3] = tested on: human 'normal' lung WI-38 cells; assay: MTT proliferation assay, WI-38; type: cell-based
Protocol: Normal WI-38 diploid human lung fibroblasts and the human colorectal adenocarcinoma HT29 cells were obtained from American Type Culture Collection (Manassas, VA, USA). BJ fibroblasts expressing hTERT and SV40 early region (BJ-EHLT) were obtained as previously reported. Cells were grown in Dulbecco Modified Eagle Medium (D-MEM, Invitrogen Carlsbad, CA, USA) supplemented with 10% fetal calf serum, 2 mM L-glutamin and antibiotics.
MTT (3-(4,5-Dimethylthiazol-2-yl)-2,5-diphenyltetrazolium Bromide) assay was performed in treated and untreated cells for 96 hours. Cells were incubated with MTT solution (Sigma-Aldrich), and the purple formazan crystals were dissolved in isopropanol. Optical densities (OD) at 540 nm was determined on microplate reader.
Firstly, we investigated if they were able to efficiently promote growth inhibition of tumor cells without affecting the survival of normal cells in vitro. In Table 1 we report for each compound the concentration causing 50% of growth inhibition (GI50) calculated by performing a proliferation assay in the human colon cancer cell line HT-29 or in the human ‘normal’ lung WI-38 cells. […] On the basis of results described so far, we decided to exclude from the further analysis ligand 10 for its high value of hERG inhibition (95%) (Table 1).

[4] = tested on: hairpin duplex, 5'-biotin-CGA3T3C(CT)2GA3T3CG (DNA, hairpin) CGAAATTTCCTCTGAAATTTCG; assay: SPR

Sequence of hERG (Q12809 whole entry): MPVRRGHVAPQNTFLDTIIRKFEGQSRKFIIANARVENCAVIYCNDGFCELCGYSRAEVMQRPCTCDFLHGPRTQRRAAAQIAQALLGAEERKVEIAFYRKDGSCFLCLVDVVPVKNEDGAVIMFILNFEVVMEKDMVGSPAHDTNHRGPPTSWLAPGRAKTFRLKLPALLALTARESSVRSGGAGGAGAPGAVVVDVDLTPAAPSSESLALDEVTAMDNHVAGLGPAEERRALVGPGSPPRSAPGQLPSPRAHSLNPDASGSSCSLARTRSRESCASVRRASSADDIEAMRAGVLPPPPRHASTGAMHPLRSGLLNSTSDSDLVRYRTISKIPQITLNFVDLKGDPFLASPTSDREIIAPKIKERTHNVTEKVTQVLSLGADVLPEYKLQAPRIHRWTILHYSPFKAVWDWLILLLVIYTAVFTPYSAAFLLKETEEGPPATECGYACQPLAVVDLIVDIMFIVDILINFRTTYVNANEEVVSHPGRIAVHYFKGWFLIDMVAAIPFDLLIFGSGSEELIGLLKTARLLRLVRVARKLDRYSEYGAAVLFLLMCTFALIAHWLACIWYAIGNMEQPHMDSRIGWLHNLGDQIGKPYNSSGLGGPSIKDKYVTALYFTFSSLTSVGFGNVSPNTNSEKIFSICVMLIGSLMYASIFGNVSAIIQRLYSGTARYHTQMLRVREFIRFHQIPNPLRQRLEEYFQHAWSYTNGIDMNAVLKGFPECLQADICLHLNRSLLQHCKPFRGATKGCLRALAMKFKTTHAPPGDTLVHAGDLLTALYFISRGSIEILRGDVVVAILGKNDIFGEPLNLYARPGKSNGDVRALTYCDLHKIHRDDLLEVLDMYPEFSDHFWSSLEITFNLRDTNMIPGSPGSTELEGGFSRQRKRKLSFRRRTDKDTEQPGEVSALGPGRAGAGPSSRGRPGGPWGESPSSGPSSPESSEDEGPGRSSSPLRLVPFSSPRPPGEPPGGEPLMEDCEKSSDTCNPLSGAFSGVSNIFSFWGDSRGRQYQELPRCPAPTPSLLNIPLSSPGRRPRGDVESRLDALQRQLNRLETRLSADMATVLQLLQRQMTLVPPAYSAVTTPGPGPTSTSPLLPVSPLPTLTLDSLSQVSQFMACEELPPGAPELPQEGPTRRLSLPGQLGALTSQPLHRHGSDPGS

- K [1]: 1.42e+07 M⁻¹
- Duplex DNA affinity K [2]: 0,9 x10^6 M^−1
- K [4]: 900000 M⁻¹
Compound: CC(=O)NCC#Cc1ccc2c3cccc4c3c([n+](C)c2c1)-c1ccccc1N4C [Compound 8]
- mean TIFs per nucleus (BJ-EHLT fibroblasts; 24 hrs): about seven
- percentage of cells with more than four γ-H2AX/TRF1 colocalizations (TIF-positive) (BJ-EHLT fibroblasts; 24 hrs, 0,5 μM): ~40%
- inhibition at 10 µM (hERG): 40%
- Ratio PMX WI38/HT29 ([3]; GI50 WI-38 / GI50 HT-29): 33,5
- GI50 ([3]; Homo sapiens, WI-38, MTT, 96 hours): 25.1 µM
